Test results published in patent US10647680B2, “Urea compound, preparation method therefor and medical use thereof” (Ancureall Pharmaceutical (Shanghai) Co., Ltd., priority 2016, dated 2020).

How the values were obtained:
NCI-H1581 (FGFR1 amp) = assay: In vitro growth inhibition (GI50), NCI-H1581; type: cell-based; settings: Homo sapiens
Text: Tumor cell line is an effective cell model for studying the inhibition of tumor cell growth or proliferation in vitro. In the present invention, a representative tumor cell line was selected to determine the cell growth inhibition activity of the present compound. All cell lines used were from ATCC, DSMZ, and the Cell Bank of the Chinese Academy of Sciences. Cell culture conditions and methods were in accordance with the requirements of each cell line. Cells were subcultured in vitro for no more than 3 passages each time, and as required, single-clone purification and identification of cell lines could be carried out.
The cell culture media used were RPMI1640 (Gibco), MEM (Gibco), McCOY'S5A (Gibco), and IMDM (Gibco). The complete medium was prepared by supplement with 5˜20% fetal calf serum (Gibco), 1% double-antibiotics (10000 units/mL penicillin and 10000 units/mL), 2 mM glutamine or 1 mM sodium pyruvate, respectively.
Human non-small cell lung cancer cell NCI-H1581 (FGFR1 amp, ATCC) is an FGFR1 gene amplified/overexpressed tumor cell line. It was cultured in complete medium comprising 1×RPMI1640 with 10% FBS.
Adherent cells were digested with 0.25% pancreatin-EDTA (Gibco). The suspension cells were collected by centrifugation. The supernatant was discarded and the cell pellet was resuspended and counted. Different cell concentrations (5˜10×10^4 cells/mL) were prepared according to the growth cycle of each cell line and then seeded on a 96-well plate (Corning), 100 μL/well. The cells were incubated overnight at 37° C., 5% CO2. The compounds were added to the cells on the second day with 2 wells in parallel. The final concentration of organic solvent shall not exceed 1%. The cells were continually incubated for 3 to 5 days, and then subjected to MTT assay.
The compound of the present invention and the control compound were dissolved in DMSO (Sigma) respectively, with the purity of more than 98%. The compound was stored in a concentration of 10 mM at −20° C. and diluted to 2- or 10-fold series prior to use.
Dojindo CCK8 reagent kit was used as MTT assay. THERMO […] FC meter was used as microplate reader.
For adherent cells, culture medium was removed and immediately replaced with the fresh prepared medium which contains 10% CCK8 reagent (100 μL/well). For the suspension cells, CCK8 was directly added to 10% of the final concentration. The cells were continually incubated for 1˜4 h. When a dark yellow color could be observed in the solvent control wells, the absorbance value at OD450 nm was measured and the cell growth rate was calculated according to the following formula: Cell Growth Rate (%)=100*(T−T0)/(C−T0) T=optical density of drug treatment cell well—optical density of blank control well; T0=optical density of cell well before drug treatment—optical density of blank control well; C=optical density of cell well of solvent control group—optical density of blank control well. The concentration value of 50% inhibition of cell growth (GI50) was calculated according to the drug concentration and cell growth rate curve. The experiment was independently repeated 1˜3 times, and subject to biological statistical analysis. 4. Experimental Results
Tumor cell growth inhibition test was performed by selecting representative compounds (compounds 4, 11, 12, 16, 27, 68, 71, 77, 79, 89 and 116 of the present invention). The initial concentration of the compound was 5,000 nM, then it was serially diluted by 2-fold or 10-fold to 0.01 nM. The GI50 value of each test compound was calculated according to the GI50 assay and calculation method. The experiments were repeated 1 to 3 times, and data were subjected to biological statistical analysis.

[1] = test system: OCI-AML3 (NPMc+ mutant type); assay: In vitro growth inhibition (GI50), OCI-AML3; type: cell-based; settings: Homo sapiens, OCI-AML-3; Cell lines of leukemia; read-out: GI 50 OCI- AML3 NPMc+

SMILES | GI50 (NCI-H1581 (FGFR1 amp)) [nM] | GI50 [1] [nM]
CC(C)(C)c1cc(NC(=O)Nc2ccc(-n3cnc4cc(OCCN5CCOCC5)ccc43)cc2)no1 [Compound 16, 1-(5-tert-butyl-isoxazol-3-yl)-3-{4-[5-(2-morpholin-4-yl-ethoxyl)-benzimidazol-1-yl]-phenyl}-urea] | > 2500 | > 1000
CC(C)(C)c1cc(N)n(C(=O)Nc2ccc(-n3cnc4ccccc43)cc2)n1 [Compound 116, 5-amino-3-tert-butyl-pyrazol-1-carboxylic acid (4-benzimidazol-1-yl-phenyl)-amide] | > 2500 | > 1000
CC(C)(C)c1cc(NC(=O)Nc2ccc(-n3cnc4cc(OCCO)ccc43)cc2)[nH]n1 [Compound 79, 1-(5-tert-butyl-2H-pyrazol-3-yl)-3-{4-[5-(2-hydroxy-ethoxyl)-benzimidazol-1-yl]-phenyl]urea] | > 2500 | > 1000
CC(C)(C)c1cc(NC(=O)Nc2ccc(-n3cnc4cc(OCCN5CCOCC5)ccc43)cc2)[nH]n1 [Compound 89, 1-(5-tert-butyl-2H-pyrazol-3-yl)-3-{4-[5-(2-morpholin-4-yl-ethoxyl)-benzimidazol-1-yl]-phenyl}-urea] | > 2500 | 100 to 1000
COCCOc1ccc2c(c1)ncn2-c1ccc(NC(=O)Nc2cc(C(C)(C)C)n[nH]2)cc1 [Compound 77, 1-(5-tert-butyl-2H-pyrazol-3-yl)-3-{4-[5-(2-methoxyl-ethoxyl)-benzimidazol-1-yl]-phenyl}-urea] | > 2500 | > 1000
COc1ccc2c(c1)ncn2-c1ccc(NC(=O)Nc2cc(C(C)(C)C)n[nH]2)cc1 [Compound 71, 1-(5-tert-butyl-2H-pyrazol-3-yl)-3-[4-(5-methoxyl-benzimidazol-1-yl)-phenyl]-urea] | > 2500 | > 1000
CC(C)(C)c1cc(NC(=O)Nc2ccc(-n3cnc4ccccc43)cc2)[nH]n1 [Compound 68, 1-(4-benzimidazol-1-yl-phenyl)-3-(5-tert-butyl-2H-pyrazol-3-yl)-urea] | > 2500 | > 1000
CC(C)(C)c1cc(NC(=O)Nc2ccc(-n3cnc4ccc(OCCN5CCOCC5)cc43)cc2)no1 [Compound 27, 1-(5-tert-butyl-isoxazol-3-yl)-3-{4-[6-(2morpholin-4-yl-ethoxyl)-benzimidazol-1-yl]-phenyl}-urea] | > 2500 | 100 to 1000
CC(C)(C)c1cc(NC(=O)Nc2ccc(-n3cnc4cc(O)ccc43)cc2)no1 [Compound 4, 1-(5-tert-butyl-isoxazol-3-yl)-3-[4-(5-hydroxy-benzimidazol-1-yl)-phenyl]-urea] | > 2500 | > 1000
CC(C)(C)c1cc(NC(=O)Nc2ccc(-n3cnc4cc(OCCO)ccc43)cc2)no1 [Compound 11, 1-(5-tert-butyl-isoxazol-3-yl)-3-{4-[5-(2-hydroxy-ethoxyl)-benzimidazol-1-yl]-phenyl]-urea] | > 2500 | > 1000
